“And” between values parts separate entries of the source, which are not always exact repeats. Equal values may be shown once. Read-outs that look alike come from different tables or passages of the source.
Key:
[1] = molecular target: T1, RFK module of CaFADS (Corynebacterium ammoniagenes, UniProt Q59263, L183M); assay: Steady-state RFK activity (HPLC quantification of flavins); assay type: biochemical
T1 construct: a truncated CaFADS variant consisting in the isolated C-terminal RFK module; made in house; host or cells: E. coli BL21(DE3)
T1 sequence (Q59263 183-338 L183M): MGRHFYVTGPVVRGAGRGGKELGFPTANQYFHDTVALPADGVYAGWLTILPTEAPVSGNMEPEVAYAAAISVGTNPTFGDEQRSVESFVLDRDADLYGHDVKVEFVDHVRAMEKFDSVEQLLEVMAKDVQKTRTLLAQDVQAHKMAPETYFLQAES
Procedure: In all cases, reactions were initiated by addition of the enzyme to a final concentration of ≈40 nM, which was followed by 1 min of incubation, and the reactions were stopped by boiling the samples at 100 °C for 5 min as previously described, [20]. The flavin composition of the supernatant was analyzed using an Alliance HPLC system (Waters) equipped with a 2707 autosampler and an HSST3 column (4.6 × 50 mm, […]; Waters) preceded by a precolumn (4.6 × 20 mm, […]; Waters) as previously described, [20]. […] All the experiments were carried out in triplicate.
Additionally, Dixon plots (1/(v 0/[e]) vs [I]) and Cornish-Bowden representations ([S]/(v 0/[e]) vs [I]) were used to reveal the type of inhibition, [43].

[2] = molecular target: T1, RFK module of CaFADS; assay: Isothermal titration calorimetry of binary and ternary interactions; assay type: binding; conditions: for Kd: read-out: Kd
Procedure: Isothermal titration calorimetry (ITC) experiments were performed to elucidate the order in which ligands bind to the enzyme, as well as the binding inhibition effects from the thermodynamic point of view. Experiments were carried out in an AutoITC200 (MicroCal) that was thermostated at 25 °C. […] Titrations with FLV ligands of mixtures that contained the enzyme prebound with the ANP ligand were also carried out, as well as ANP titrations of mixtures of the enzyme saturated with FLV ligands. In these experiments, the titration was performed by stepwise injecting the titrating ligand. Up to 19 injections of 2 μL each were added to the calorimetric sample cell and mixed at a stirring speed of 1000 r.p.m. Ligands and protein were dissolved in 20 mM PIPES, pH 7.0, either in the presence or absence of 0.8 mM MgCl2, and degassed prior to titration. The association constant (K a), the enthalpy change (ΔH) and the binding stoichiometry (N) were obtained through a nonlinear least squares regression of the data using a homemade model for one or two independent binding sites, which was implemented in Origin 7.0 (OriginLab) as previously described, [20]. The entropic contribution (-TΔS), the Gibbs free energy (ΔG) and the dissociation constant (K d) were obtained through essential thermodynamic equations.
Experiments were performed in triplicate.

[3] = initial mixture RFK:FMN, 0.0 mM MgCl2
[4] = initial mixture RFK:FMN, 0.8 mM MgCl2
[5] = initial mixture RFK:RF, 0.0 mM MgCl2
[6] = initial mixture RFK:RF, 0.8 mM MgCl2
[7] = initial mixture RFK, 0.0 mM MgCl2
[8] = initial mixture RFK, 0.8 mM MgCl2
[9] = apparent, ATP varied, ~5 µM RF, [ADP] 20 μM
[10] = apparent, ATP varied, ~5 µM RF, [ADP] 50 μM
[11] = apparent, ATP varied, ~5 µM RF, [ADP] 90 μM
[12] = apparent, ATP varied, ~5 µM RF, [ADP] 170 μM

Nc1ncnc2c1ncn2[C@@H]1O[C@H](COP(=O)(O)OP(=O)(O)O)[C@@H](O)[C@H]1O [ADP]
type of inhibition of the RFK activity ([1]; Dixon, Cornish-Bowden and Lineweaver-Burk plots): competitive inhibitor
Ki ([1]; global fit of Lineweaver-Burk equation, competitive inhibition, ~5 µM RF, read-out: KiADP): 17 ± 3.3 µM
K m/K i ratio ([1]; product inhibitor potency, KmRF/KiFMN and KmATP/KiADP): ≈ 2.4
-TΔS [2, 3]: 9.3 kcal/mol
ΔG [2, 3]: -6.6 kcal/mol
ΔH [2, 3]: -15.9 kcal/mol
Kd [2, 3]: 14.8 µM
-TΔS [2, 4]: 1.8 kcal/mol
ΔG [2, 4]: -8.5 kcal/mol
ΔH [2, 4]: -10.3 kcal/mol
Kd [2, 4]: 0.6 µM
-TΔS [2, 5]: 25.4 kcal/mol
ΔG [2, 5]: -6.5 kcal/mol
ΔH [2, 5]: -31.8 kcal/mol
Kd [2, 5]: 17.1 µM
-TΔS [2, 6]: 5.2 kcal/mol
ΔG [2, 6]: -8.2 kcal/mol
ΔH [2, 6]: -13.4 kcal/mol
Kd [2, 6]: 1 µM
-TΔS [2, 7]: 0.6 kcal/mol
ΔG [2, 7]: -5.8 kcal/mol
ΔH [2, 7]: -6.4 kcal/mol
Kd ([2]; initial mixture RFK, 0.0 mM MgCl2, 20 mM PIPES, pH 7.0, 25 °C): 51.4 µM
-TΔS [2, 8]: 3.5 kcal/mol
ΔG [2, 8]: -6.4 kcal/mol
ΔH [2, 8]: -9.8 kcal/mol
Kd ([2]; initial mixture RFK, 0.8 mM MgCl2, 20 mM PIPES, pH 7.0, 25 °C): 22.1 µM

Nc1ncnc2c1ncn2[C@@H]1O[C@H](COP(=O)(O)OP(=O)(O)OP(=O)(O)O)[C@@H](O)[C@H]1O [ATP]
KmATP ([1]; apparent, ATP varied, ~5 µM RF, [ADP] 0 μM, 25 °C, 0.8 mM MgCl2, pH 7.0): 60 ± 11 µM
k cat ([1]; apparent, ATP varied, ~5 µM RF, [ADP] 0 μM, 25 °C, 20 mM PIPES, 0.8 mM MgCl2, pH 7.0): 2.67 ± 0.167 s⁻¹
KmATP [1, 9]: 110 ± 20 µM
k cat [1, 9]: 2.67 ± 0.167 s⁻¹
KmATP [1, 10]: 140 ± 20 µM
k cat [1, 10]: 2.33 ± 0.167 s⁻¹
KmATP [1, 11]: 260 ± 20 µM
k cat [1, 11]: 2.83 ± 0.167 s⁻¹
KmATP [1, 12]: 700 ± 270 µM
k cat [1, 12]: 2.83 ± 1 s⁻¹
k cat ([1]; global fit of Lineweaver-Burk equation, competitive inhibition by ADP, ATP varied, ~5 µM RF): 2.17 ± 0.5 s⁻¹
KmATP ([1]; global fit of Lineweaver-Burk equation, competitive inhibition by ADP, ~5 µM RF): 40 ± 20 µM and 40 ± 12 µM
-TΔS [2, 3]: 9.3 kcal/mol
ΔH [2, 3]: -17.9 kcal/mol
-TΔS [2, 4]: 9.3 kcal/mol
ΔH [2, 4]: -19.5 kcal/mol
-TΔS [2, 5]: 66.6 kcal/mol
ΔH [2, 5]: -72.5 kcal/mol
-TΔS [2, 7]: -1.0 kcal/mol
ΔH [2, 7]: -5.5 kcal/mol
-TΔS [2, 8]: -0.6 kcal/mol
ΔG [2, 8]: -6.1 kcal/mol
ΔH [2, 8]: -5.6 kcal/mol
